Reference: US8629093B2, “Detergent composition comprising mixture of chelants” (The Procter & Gamble Company, priority 2010, dated 2014)

Legend:
[1] = Stain removal on wine stains (MiniWasher, image analysis); details: wash 32.2° C., 6 gpg hardness, 12 minutes
Procedure: (§1) The performance of the chelants were measured on wine and tea. Wine and tea stains were applied to cotton and obtained from EMC (US). Stains and ballast load consisting of 0.5 kg of T-shirt was added to a MiniWasher representing a medium US wash conditions. The wash water was set at 32.2° C.±1° C. and 6 gpg (1 mmol/L) hardness and the rinse water was set at 15.5° C.±1° C. The water volume was 15 liters and wash time 12 minutes.
(§2) The stains and the ballast were dried at the end of each cycle under high speed and high heat with cool down cycle. The results were then analyzed by image analysis which is a method that enables to calculate the amount of stain that is removed. Stains are imaged before washing and after washing. The imaging calculates the amount of stain removal index (SRI). SRI of 100 means complete removal and SRI of zero is no removal.
(§3) The Laundry Image Analysis system (Merlin image analysis system) measures stain removal on technical stain swatches. The system utilizes a video camera to acquire color images of swatches. An image of the swatch is taken before and after it is washed. The acquired image is then analyzed by computer software (Global R&D computing). The software compares the unwashed stain to the washed stain, as well as the unwashed fabric to the washed fabric and produces five figures of merit which describe stain removal. The data are then analyzed statistically to determine statistically significant differences between the detergent performances.
(§4) The stain removal index uses the initial fabric as the reference against which to measure color differences between unwashed and washed stains. A higher value indicates a better cleaning and stain removal thus a better detergent. The standard deviation is 1.

[2] = Stain removal on tea stains (MiniWasher, image analysis); details: wash 32.2° C., 6 gpg hardness, 12 minutes
Procedure: as §1, §2, §3, §4

[3] = Product stability on storage, assessed visually; assay type: physicochemical
Procedure: Products (I through III) were prepared by combining Composition C and the 3 different chelant combinations. The products (75 g) were stored for 4 weeks at 4° C., 20° C. and 35° C. in a Glass Jar (100 mL contenance). The product stability was then assessed visually. If there is a visual precipitate or a product phase split, the stability is considered Fail. Stability is considered Pass if there is no signs of changes during the storage period.

[4] = Cleaning efficacy of compact liquid detergent composition; details: composition comprising 0.7% of Na-DTPA
[5] = chelant 1 ppm, SRI 100 = complete removal, standard deviation 1

Stability of compact liquid detergent composition ([3]; composition comprising 0.7% of Na-DTPA)	Stability of compact liquid detergent composition ([3]; quantity of Na-DTPA increased to the effective level)	Compound	Stain Removal Index Wine [1, 5]	Stain Removal Index Wine ([1]; chelant 2 ppm)	Stain Removal Index Wine ([1]; chelant 3 ppm)	Stain Removal Index Tea [2, 5]	Stain Removal Index Tea ([2]; chelant 2 ppm)	Stain Removal Index Tea ([2]; chelant 3 ppm)	Cleaning efficacy [4]
stable	does not meet the stability requirements	O=C([O-])CN(CCN(CC(=O)[O-])CC(=O)[O-])CCN(CC(=O)[O-])CC(=O)[O-].[Na+].[Na+].[Na+].[Na+].[Na+] [Na-DTPA, sodium salt of diethylene triamine pentaacetate]	55.2	55.8	56.4	27.6	29.0	27.1	does not provide desired cleaning efficacy
		O=C([O-])CC(NCCNC(CC(=O)O)C(=O)[O-])C(=O)[O-].[Na+].[Na+].[Na+] (stereo not drawn) [Na-EDDS, sodium salt of Ethylenediamine-N,N′-disuccinic acid]	58.3	59.0	56.8	28.2	29.3	26.1	
